Results taken from patent EP4631938A1, “NITROGEN-CONTAINING HETEROCYCLE WITH SEROTONIN RECEPTOR-BINDING ACTIVITY AND CARBOCYCLIC DERIVATIVE” (Shionogi & Co., Ltd, priority 2022, dated 2024).
Where two headings read alike, the source gives them in different places.

Assays:
[1] = biological target: T1, human recombinant 5-HT2A receptor (Homo sapiens, UniProt P28223); experiment: Test Example 1: 5-HT2A receptor binding inhibition test ([3H]-Ketanserin; non-specific ligand Serotonin HCl)
T1 construct: expressed in transfected cells; host or cells: Jump-In HEK cells (membrane preparation)
Method: The Kd value is calculated when the lot of the cell membrane is changed. 1 mmol/L non-specific binding calculating compound dissolved in DMSO or DMSO is previously dispensed to the microplate by 0.5 µL, and the cell membrane is diluted with an Assay buffer. The radioactive ligand solution is diluted step by step, and counts are checked with a liquid scintillator. The Assay buffer containing diluted cell membranes is dispensed by 50 µL/well into the microplate. The radioactive ligand solution is then dispensed by 50 µL/well into the microplate and the plate is sealed. The microplate is allowed to stand for 1.5 hours at room temperature (25°C). During this time, 50 mmol/L Tris-HCl (pH 7.4) is dispensed by 50 µL/well on the GF/B UniFilter plate and allowed to stand at 4°C for 1 hour or longer. Thereafter, filtration is performed with a Cell Harvester (PerkinElmer). The radioactive ligand solution is dispensed by 10 µL/well into empty wells of the GF/B UniFilter plate. After drying the GF/B UniFilter plate at room temperature, MicroScinti20 is dispensed by 50 µL/well into the GF/B UniFilter plate, and the plate is sealed. GF/B UniFilter plate is allowed to stand at room temperature overnight. The radioactivity of [^3H]-Ketanserin bound to the 5-HT2A receptor is measured using Microbeta2 (PerkinElmer) at a measurement time of 1 min/well. The Saturation curve is drawn from the measured value, and the Kd value is calculated from the slope of the Scatchard Plot.
A compound solution dissolved in DMSO is dispensed to a microplate by 0.5 µL, and a cell membrane and a hot ligand are each diluted with an Assay buffer. The Assay buffer containing diluted cell membrane is then dispensed by 50 µL/well into the microplate. The radioactive ligand solution is then dispensed by 50 µL/well into the microplate and the plate is sealed. Thereafter, the microplate is allowed to stand at room temperature (25°C) for 1.5 hours. During this time, 50 mmol/L Tris-HCl (pH 7.4) is dispensed by 50 µL/well into the GF/B UniFilter plate and allowed to stand at 4°C for 1 hour or longer. Thereafter, filtration is performed with a Cell Harvester (PerkinElmer). After drying the GF/B UniFilter plate at room temperature, MicroScinti20 is dispensed by 50 µL/well into the GF/B UniFilter plate, and the plate is sealed. GF/B UniFilter plate is allowed to stand at room temperature overnight. The radioactivity of [^3H]-Ketanserin bound to the 5-HT2A receptor is measured using Microbeta2 (PerkinElmer) at a measurement time of 1 min/well. Non-specific binding is calculated from the radioactivity of [^3H]-Ketanserin in the presence of 500 µmol/L Serotonin HCl of unlabeled ligand, and total binding is calculated from the radioactivity of [^3H]-Ketanserin in the absence of the compound of the present invention (Vehicle). Finally, the Ki value is calculated from the dose-response curve.
(The binding activity of the compound according to the present invention is calculated from the following binding inhibition rate (%).) Inhibition rate (%) = [1−(c−a)/(b−a)] × 100 [formula] • a; average cpm of non-specific binding • b; average cpm of total binding • c; cpm in the presence of the test compound
The compounds of the present invention were tested essentially as described above.

[2] = biological target: T2, CYP3A4 (Homo sapiens, UniProt P08684); experiment: Test Example 8: CYP3A4 (MDZ) MBI test; type: in vitro ADME; conditions: pooled human liver microsomes; substrate 10 µmol/L MDZ; pre-reaction 0 or 30 minutes; compound 0.83, 5, 10, 20 µmol/L
T2 construct: pooled human liver microsomes by 1-hydroxylation reaction of midazolam (MDZ) as a marker reaction; from tissue; host or cells: pooled human liver microsomes
Method: CYP3A4 (MDZ) MBI test is a test of investigating MBI potential on CYP3A4 by the enhancement of inhibitory degree of a metabolic reaction caused by the compound of the present invention. CYP3A4 inhibition is evaluated using pooled human liver microsomes by 1-hydroxylation reaction of midazolam (MDZ) as a marker reaction.
The reaction conditions are as follows: substrate, 10 µmol/L MDZ; pre-reaction time, 0 or 30 minutes; substrate reaction time, 2 minutes; reaction temperature, 37°C; pooled human liver microsomes, at pre-reaction 0.5 mg/mL, at reaction 0.05 mg/mL (at 10-fold dilution); concentrations of the compound of the present invention, at pre-reaction 0.83, 5, 10, 20 µmol/L (4 points).
Pooled human liver microsomes and a solution of the compound of the present invention in K-Pi buffer (pH 7.4) as a pre-reaction solution are added to a 96-well plate at the composition of the pre-reaction. A part of pre-reaction solution is transferred to another 96-well plate, and diluted 10-fold by K-Pi buffer containing a substrate. NADPH as a cofactor is added to initiate a reaction as a marker reaction (without preincubation). After a predetermined time of the reaction, methanol/acetonitrile=1/1 (V/V) solution is added to stop the reaction. NADPH is also added to the remaining pre-reaction solution to initiate the pre-reaction (with pre-reaction), and after the pre-reaction for a predetermined time, a part is transferred to and diluted 10-fold by K-Pi buffer containing a substrate to initiate the reaction as a marker reaction. After a predetermined reaction time, the reaction is stopped by adding a methanol/acetonitrile = 1/1 (V/V) solution. Each plate where the indicator reaction has been performed is centrifuged at 3000 rpm for 15 minutes. Then, midazolam 1-hydroxide in the centrifuged supernatant is quantified by LC/MS/MS.
The sample adding DMSO as a solvent to a reaction system instead of a solution dissolving the compound of the present invention is adopted as a control (100 %). Remaining activity (%) is calculated at each concentration of the compound of the present invention compared to a control, and IC value is calculated by reverse-presumption by a logistic model using a concentration and an inhibition rate. Shifted IC value is calculated as "IC of preincubation at 0 minutes/ IC of preincubation at 30 minutes". When a shifted IC is 1.5 or more, this is defined as positive. When a shifted IC is 1.0 or less, this is defined as negative.

T2 sequence (P08684 whole entry): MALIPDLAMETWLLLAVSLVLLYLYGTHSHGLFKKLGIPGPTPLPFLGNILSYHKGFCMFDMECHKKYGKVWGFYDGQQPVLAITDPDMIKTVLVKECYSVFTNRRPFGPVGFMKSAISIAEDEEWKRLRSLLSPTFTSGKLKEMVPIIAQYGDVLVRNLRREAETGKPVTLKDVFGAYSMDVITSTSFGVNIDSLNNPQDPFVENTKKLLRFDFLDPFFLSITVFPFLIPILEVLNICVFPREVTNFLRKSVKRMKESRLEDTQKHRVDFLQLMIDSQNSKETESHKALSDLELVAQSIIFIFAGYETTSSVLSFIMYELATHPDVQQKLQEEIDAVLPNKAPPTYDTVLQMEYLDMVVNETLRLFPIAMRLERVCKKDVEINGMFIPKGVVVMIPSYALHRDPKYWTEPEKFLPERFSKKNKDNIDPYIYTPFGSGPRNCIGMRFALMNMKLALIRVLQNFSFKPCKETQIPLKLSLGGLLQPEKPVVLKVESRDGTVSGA
T1 sequence (P28223 whole entry): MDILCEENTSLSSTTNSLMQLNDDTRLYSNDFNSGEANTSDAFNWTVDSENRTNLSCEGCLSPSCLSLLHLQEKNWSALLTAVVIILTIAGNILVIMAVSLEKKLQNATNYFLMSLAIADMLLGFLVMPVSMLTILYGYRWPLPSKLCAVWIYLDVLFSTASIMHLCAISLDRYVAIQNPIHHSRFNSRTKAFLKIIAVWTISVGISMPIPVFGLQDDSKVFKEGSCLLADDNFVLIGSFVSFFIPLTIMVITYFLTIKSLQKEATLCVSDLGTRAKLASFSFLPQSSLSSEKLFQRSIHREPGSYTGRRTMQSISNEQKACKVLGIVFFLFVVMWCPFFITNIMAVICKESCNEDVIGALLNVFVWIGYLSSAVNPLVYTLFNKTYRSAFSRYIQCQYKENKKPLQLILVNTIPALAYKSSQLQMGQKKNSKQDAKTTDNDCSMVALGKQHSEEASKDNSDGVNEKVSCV

| SMILES | CYP3A4 (MDZ) MBI (shifted IC: IC of preincubation at 0 minutes/ IC of preincubation at 30 minutes) [2] | also measured |
| --- | --- | --- |
| Cn1ncc(Br)c1-c1cc(Nc2ncc(C(F)(F)F)cc2F)ccc1OCCO [Compound I-006] |  | Ki [1]: 0.317 nM |
| Cc1cnn(C)c1-c1cc(Nc2ncc(C(F)(F)F)cc2F)ccc1OCCO [Compound I-008] |  | Ki ([1]; [3H]-Ketanserin, non-specific binding with 500 µmol/L Serotonin HCl, room temperature (25°C), 1.5 hours, read-out: h 5-HT2A Ki): 0.344 nM |
| Cn1ncc(F)c1-c1cc(Nc2ncc(C(F)(F)F)cc2F)cnc1OCCO [Compound I-127] | Negative (When a shifted IC is 1.0 or less, this is defined as negative) |  |
| COCc1nc(C)c(-c2cc(Nc3ncc(OC(F)(F)F)cc3Cl)ncc2OCCO)c(C)n1 [Compound I-200] | Negative (When a shifted IC is 1.0 or less, this is defined as negative) |  |
| COCc1nc(C)c(-c2nc(Nc3ccc(C(F)(F)F)c(C)n3)c(F)cc2OCCO)c(C)n1 [Compound I-247] | Negative (When a shifted IC is 1.0 or less, this is defined as negative) |  |
| Cc1nc(COC2COC2)nc(C)c1-c1cc(Nc2ncc(C(F)(F)F)cc2Cl)ncc1OCCO [Compound I-376] | Negative (When a shifted IC is 1.0 or less, this is defined as negative) |  |
| Cc1nc(CO[C@@H]2CCOC2)nc(C)c1-c1cc(Nc2ncc(C(F)(F)F)cc2Cl)ncc1OCCO [Compound I-378] | Negative (When a shifted IC is 1.0 or less, this is defined as negative) |  |
